Where two headings read alike, the source gives them in different places.
Tests used:
THP-1 cells [1] = experiment: Cytokine release (TNF-α, MCP-1, IL-6) by LPS-stimulated THP-1 macrophages after fatty acid incubation; type: cell-based; settings: compared to control macrophages; for Inflammatory cytokine release (TNF-α, MCP-1, IL-6): 24 h fatty acid (50 and 100 μM), then 24 h LPS; for Cytokine release with increasing concentration of fatty acids: 50 to 100 μM
Protocol: (§1) THP-1 cells were maintained in RPMI 1640+2 mM L-Glutamine, 10 mM HEPES, 1 mM sodium pyruvate, 4500 mg/L glucose, and 1500 mg/L sodium bicarbonate; supplemented with 3.5 μL/L of 2-mercaptoethanol and 10% fetal bovine serum (FBS). Cell line was maintained in 75 cm^2 filtered cap flasks in a 37° C. incubator with 5% CO2. THP-1 cells were seeded in 24 well plates at 5×10^5 cells/mL using 600 μL/well and allowed to differentiate into macrophages (MΦ) for 72 h with phorbol 12-myristate 13-acetate (PMA) at a final concentration of 50 ng/mL.
Experiment 1: Prior to incubation with individual fatty acids, the cells were starved for 8 h in a 2% lipo-free FBS RPMI medium. Individual fatty acids were added in duplicate into the 24 well plate at two concentrations, 50 μM and 100 μM. Every assay was cultured in three runs with duplicates in each run pooled. After incubation for 24 h with fatty acids the MΦ were scraped off the plates and fatty acids were isolated as described in the ‘Animal Tests’ portion of this Example. The fatty acid profiles of the MΦ were determined as previously described (Wang, et al., 2010, Clin. Nutr., DOI: 10.1016/j.clnu.2013.04.009).
(§2) Experiment 2: Previously differentiated MΦ were incubated with fatty acids as described in ‘Experiment 1’ for 24 hours. At the 24 h time point the cells were then stimulated with lipopolysaccharide from E. coli 0111:B4 for another 24 hours. The plates were centrifuged at 1200×g for 5 minutes and supernatant was then collected and analyzed for cytokines. The MΦ were scraped off the plates and fatty acids were isolated as described in the ‘Animal Portion’. The fatty acid profiles of the MΦ were determined as previously described (Wang, et al., 2010, Clin. Nutr., DOI: 10.1016/j.clnu.2013.04.009).
A linear mixed effects model was used in R, lme in the nlme package, for estimating treatment effects on cytokine production in LPS stimulated THP-1 cells. The fixed effects fit were treatment, FA concentration, and when significant LPS concentration was fit as a covariate, the plate cells were cultured on nested within run was fit as a random effect. Least squares means were analyzed as outlined above and pairwise comparisons were made between treatments for FA concentration, or where significant LPS concentration.
The objective of this study was to determine if docosapentaenoic acid n-3 (DPAn3) enrichment of macrophages (MΦ) changed their inflammatory response relative to saturated (S), mono-unsaturated (MU), and other poly-unsaturated (PU) fatty acids (FA). Differentiated THP-1 cells were incubated with one of 11 FA (50 and 100 μM) of varying degrees of unsaturation or no FA for 24 h prior to 24 h of stimulation with lipopolysaccharide from E. coli. Fatty acids were collected from MΦ without stimulation to determine the fatty acid profiles. Media was collected from MΦ post-stimulation and probed for prostaglandin E2, and cytokines, including tumor necrosis factor-α, monocyte chemoattractant protein-1, and interleukin-6. Prostaglandin E2 production was greater (P<0.05) for AA than all other FA, and omega-3 PUFA decreased (P<0.01) PGE2 compared to n6 PUFA and all other FA.

THP-1 cells [2] = experiment: Prostaglandin E2 production by LPS-stimulated THP-1 macrophages after fatty acid incubation; type: cell-based; settings: 24 h fatty acid (50 and 100 μM), then 24 h LPS; compared to other FA
Protocol: as §1, §2
The objective of this study was to determine if docosapentaenoic acid n-3 (DPAn3) enrichment of macrophages (MΦ) changed their inflammatory response relative to saturated (S), mono-unsaturated (MU), and other poly-unsaturated (PU) fatty acids (FA). […]

[3] = tested on: murine peritoneal macrophages; settings: cited from earlier work
LDLr−/− mice [4] = experiment: Lipid and cholesterol (TC, FC, CE) in aortas of LDLr−/− mice fed an atherogenic diet; type: in vivo; settings: supplement 0.76% w/w of the diet
Excerpt: (§3) 48 male LDLr−/− mice (8-10 weeks of age, ˜20 g) were obtained from Jackson Laboratories (stock #2207) and allowed to acclimate to the cages, room, and feeding design for 12 days. After the acclimation period mice were weighed and randomly assigned to one of six treatments. Mice were fed an isolipid (20% total fatty acids w/w), isonitrogenous, and 0.2% cholesterol (w/w) diet, which is considered atherogenic (Ain76, 58TQ TestDiet®) as a base diet. This base diet was formulated to meet or exceed all nutrient and energy requirements for a growing mouse. The treatments were added to the base diet (0.76% w/w of the total diet) and was made once at the beginning of the study, separated into weekly aliquots, stored at −80° C., allowed to thaw at 4° C. for 2 days prior to feeding, and stored at 4° C. until fed. A sample from each weekly aliquot was collected, composited, and archived for fatty acid analysis at a later date. […]
(§4) Mouse body weights were recorded once weekly in conjunction with cage changes. Blood serum lipid profiles were analyzed on blood samples from the mice before (subset of 6 mice), 10 weeks, and 20 weeks relative to initiation of dietary treatments. […] Total lipid content was measured using the procedure outline by Folch, et al. (1957) J. Biol. Chem., 226:497-509, prior to cholesterol assessment. Total cholesterol, free cholesterol, and cholesterol ester were quantified as previously described (Wang, et al., 2010, Clin. Nutr., DOI: 10.1016/j.clnu.2013.04.009).
An analysis of variance model was used in R, aov in the stats package, for estimating treatment effects on cholesterol deposition in mouse aortas. Least squares means and contrasts were analyzed as outlined above. […]

LDLr−/− mice [5] = experiment: Serum lipid profile of LDLr−/− mice fed an atherogenic diet; type: in vivo; settings: week 20
Excerpt: (§5) 48 male LDLr−/− mice (8-10 weeks of age, ˜20 g) were obtained from Jackson Laboratories (stock #2207) and allowed to acclimate to the cages, room, and feeding design for 12 days. After the acclimation period mice were weighed and randomly assigned to one of six treatments. Mice were fed an isolipid (20% total fatty acids w/w), isonitrogenous, and 0.2% cholesterol (w/w) diet, which is considered atherogenic (Ain76, 58TQ TestDiet®) as a base diet. This base diet was formulated to meet or exceed all nutrient and energy requirements for a growing mouse. The treatments were added to the base diet (0.76% w/w of the total diet) and was made once at the beginning of the study, separated into weekly aliquots, stored at −80° C., allowed to thaw at 4° C. for 2 days prior to feeding, and stored at 4° C. until fed. A sample from each weekly aliquot was collected, composited, and archived for fatty acid analysis at a later date. The treatments were as follows: (1) Negative control diet, 3.5% of the total fatty acids were replaced with milk fat (the only source of fat in the base diet), (2) 3.5% of the total fatty acids were replaced with purified ethyl esters of DHA, (3) 3.5% of the total fatty acids were replaced with purified ethyl esters of DPAn3, (4) 3.5% of the total fatty acids were replaced with purified ethyl esters of EPA, (5) 3.5% of the total fatty acids were replaced with omega-3 fatty acids from Lovaza® (GlaxoSmithKline), and (6) 3.5% of the total fatty acids were replaced with omega-3 fatty acids from ΩmegaActiv® DPA 5000 (Omega Protein Inc., Houston, Tex.; Table 1).
Mouse body weights were recorded once weekly in conjunction with cage changes. Blood serum lipid profiles were analyzed on blood samples from the mice before (subset of 6 mice), 10 weeks, and 20 weeks relative to initiation of dietary treatments. Three to five days prior to the end of the study each mouse was administered an intraperitoneal injection of 1.0 mL thioglycollate broth (4.05 g/dL) to elicit peritoneal macrophages. The peritoneal cells centrifuged then cultured in RPMI 1640 (+2 mM L-glutamine, +10 mM HEPES, +1 mM sodium pyruvate, +4500 mg/L glucose, +1500 mg/L sodium bicarbonate) on tissue culture plates (size) which allowed for adhesion of the macrophages. Plates where then vigorously washed to ensure proper macrophage isolation. Macrophages were scraped off the plates and aliquotted into a glass tube for fatty acid extraction, which was then performed via a modified Folch method. The heart and aorta were isolated from each mouse and immediately frozen in liquid nitrogen for later dissection. Aortic arches were dissected from the aortic root to the abdominal aorta using a microscope. Total lipid content was measured using the procedure outline by Folch, et al. (1957) J. Biol. Chem., 226:497-509, prior to cholesterol assessment. Total cholesterol, free cholesterol, and cholesterol ester were quantified as previously described (Wang, et al., 2010, Clin. Nutr., DOI: 10.1016/j.clnu.2013.04.009).
Average daily feed intake for the mice was cut into quartiles in order to assign a feed consumption class. A linear mixed effects model was used in R, lme in the nlme package, for estimating treatment effects on blood lipid profiles in mice. The fixed effects fit were treatment, and week of study, animal nested within treatment was fit as a random effect. Least squares means were calculated using the lsmeans package for all blood lipid profiles and a general linear hypothesis test, using glht in the multcomp package, was utilized for specified contrasts, control vs. the average of all omega-3 containing diets. Because Lovaza® is composed of high and almost equal levels of EPA and DHA we also contrasted the diet supplemented with Lovaza® to the average of the diets supplemented with EPA and DHA alone. Pairwise comparisons were made between time of blood analysis, and between treatments at each individual time frame.

LDLr−/− mice [6] = experiment: Serum glucose of LDLr−/− mice fed an atherogenic diet; type: in vivo; settings: week 20
Excerpt: as §3, §4
Average daily feed intake for the mice was cut into quartiles in order to assign a feed consumption class. […] Least squares means were calculated using the lsmeans package for all blood lipid profiles and a general linear hypothesis test, using glht in the multcomp package, was utilized for specified contrasts, control vs. the average of all omega-3 containing diets. […]

TNF-α [7] = experiment: TNF-α concentration in adipose tissue of mice fed omega-3 products; type: in vivo
Excerpt: as §5
TNF-α concentration in adipose tissue of mice fed with different omega-3 products

IL-8 [8] = experiment: Fluorescence intensity (relative) of brain microvessel, IL-8; type: in vivo, mice; settings: control = 1.00
Excerpt: as §5, with “1). […]” for “1).”

MCP-1 = experiment: Fluorescence intensity (relative) of brain microvessel, MCP-1; type: in vivo, mice; settings: control = 1.00
Excerpt: as §5, with “1). […]” for “1).”

IL-8 [9] = experiment: Fluorescence intensity (relative) of brain hippocampus, IL-8; type: in vivo, mice; settings: control = 1
Excerpt: as §5, with “1). […]” for “1).”

TIMP2 = experiment: Fluorescence intensity (relative) of brain hippocampus, TIMP2; type: in vivo, mice; settings: control = 1
Excerpt: as §5, with “1). […]” for “1).”

TNF-α [10] = experiment: Fluorescence intensity (relative) of brain hippocampus, TNF-α; type: in vivo, mice; settings: control = 1
Excerpt: as §5, with “1). […]” for “1).”

## CCCCC/C=C\C/C=C\C/C=C\C/C=C\CCCC(=O)O [AA, arachidonic acid]
THP-1 cells [1]
  Inflammatory cytokine release (TNF-α, MCP-1, IL-6): decreased
THP-1 cells [2]
  Prostaglandin E2 production: greater
[3]; AA at 2-5 μM
  TNF-α production: completely inhibited
[3]; AA at concentrations as low as 1 μM
  TNF-α production: decreased

## CCCCCCCCCCCCCCCC(=O)O [C16:0]
THP-1 cells [1]
  Cytokine release with increasing concentration of fatty acids: did not change, or increased
  Inflammatory cytokine release (TNF-α, MCP-1, IL-6): did not change

## CCCCCCCCCCCCCCCCCC(=O)O [C18:0]
THP-1 cells [1]
  Cytokine release with increasing concentration of fatty acids: did not change, or increased
  Inflammatory cytokine release (TNF-α, MCP-1, IL-6): did not change

## CC/C=C\C/C=C\C/C=C\C/C=C\C/C=C\C/C=C\CCC(=O)O [DHA, docosahexaenoic acid]
LDLr−/− mice [4]
  Aorta lipid: 36.38%
LDLr−/− mice [5]
  Serum LDL cholesterol: 495.51 mg/dL
  Serum total cholesterol: 726.86 mg/dL
LDLr−/− mice [6]
  Glucose concentration in serum: 172.58 mg/dL
TNF-α [7]
  TNF-α Concentration: 0.82 pg/μg protein
IL-8 [8]
  IL-8 fluorescence intensity (relative): 0.86
MCP-1
  MCP-1 fluorescence intensity (relative): 0.93
IL-8 [9]
  IL-8 fluorescence intensity (relative): 0.46
TIMP2
  TIMP2 fluorescence intensity (relative): 0.23
TNF-α [10]
  TNF-α fluorescence intensity (relative): 0.29

## CC/C=C\C/C=C\C/C=C\C/C=C\C/C=C\CCCCCC(=O)O [DPA, docosapentaenoic acid]
LDLr−/− mice [4]
  Aorta lipid: 29.52%
LDLr−/− mice [5]
  Serum LDL cholesterol: 563.45 mg/dL
  Serum total cholesterol: 692.98 mg/dL
LDLr−/− mice [6]
  Glucose concentration in serum: 166.23 mg/dL
TNF-α [7]
  TNF-α Concentration: 0.41 pg/μg protein
IL-8 [8]
  IL-8 fluorescence intensity (relative): 0.96
MCP-1
  MCP-1 fluorescence intensity (relative): 0.92
IL-8 [9]
  IL-8 fluorescence intensity (relative): 0.70
TIMP2
  TIMP2 fluorescence intensity (relative): 0.17
TNF-α [10]
  TNF-α fluorescence intensity (relative): 0.28

## CC/C=C\C/C=C\C/C=C\C/C=C\C/C=C\CCCC(=O)O [EPA, eicosapentaenoic acid]
LDLr−/− mice [4]
  Aorta lipid: 29.93%
LDLr−/− mice [5]
  Serum LDL cholesterol: 562.07 mg/dL
  Serum total cholesterol: 663.37 mg/dL
LDLr−/− mice [6]
  Glucose concentration in serum: 198.65 mg/dL
TNF-α [7]
  TNF-α Concentration: 0.58 pg/μg protein
IL-8 [8]
  IL-8 fluorescence intensity (relative): 0.93
MCP-1
  MCP-1 fluorescence intensity (relative): 0.96
IL-8 [9]
  IL-8 fluorescence intensity (relative): 0.72
TIMP2
  TIMP2 fluorescence intensity (relative): 0.63
TNF-α [10]
  TNF-α fluorescence intensity (relative): 0.31

## CCCCCCCC/C=C\CCCCCCCC(=O)O [oleic acid]
THP-1 cells [1]
  Cytokine release with increasing concentration of fatty acids: did not change, or increased
  Inflammatory cytokine release (TNF-α, MCP-1, IL-6): did not change

Source: patent US20150133554A1, “PURIFICATION OF DPA ENRICHED OIL” (Omega Protein Corporation, priority 2013, published 2015)
